Our source for the inhibition and IC50 values is US11149037B2, “Pyrazole MAGL inhibitors” (H. Lundbeck A/S, priority 2017, dated 2021).

Common to all, as to format: biochemical
For assay [1], the target named is FAAH (Homo sapiens (Human), UniProt O00519). Put plainly: In vitro competitive activity-based protein profiling, human proteomes (prefrontal cortex or PC3 cell membrane fractions). The settings on record: human proteome; for inhibition at 1 µM: read-out: FAAH % inh. 1 μM (human). The procedure, abridged:
(§1)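 Activity of MAGL and FAAH was quantified from fluorescent gel band intensities. Beforehand, inhibitors at several concentrations competed against subsequent probe labelling (FP-Rh, JW912 or HT-01) in species-matched proteomes, each step 30 min at 37° C.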

For assay [2], the target named is MAGL (Homo sapiens (Human), UniProt Q99685). The description is as above. The settings on record: human proteome; for inhibition at 1 µM: read-out: MAGL % inh. 1 μM (human). Put shortly: as §1
MAGL (Homo sapiens (Human), UniProt Q99685), sequence (Q99685 whole entry): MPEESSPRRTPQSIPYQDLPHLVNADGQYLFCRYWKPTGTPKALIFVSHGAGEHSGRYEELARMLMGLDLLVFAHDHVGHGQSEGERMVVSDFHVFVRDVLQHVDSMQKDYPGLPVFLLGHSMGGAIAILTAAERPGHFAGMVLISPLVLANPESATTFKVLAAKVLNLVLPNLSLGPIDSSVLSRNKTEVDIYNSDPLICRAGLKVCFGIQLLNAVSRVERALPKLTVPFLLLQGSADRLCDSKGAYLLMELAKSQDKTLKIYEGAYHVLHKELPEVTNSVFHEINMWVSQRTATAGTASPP
Assay [3] has as its target FAAH (Mus musculus (Mouse), UniProt O08914). Put plainly: In vitro competitive activity-based protein profiling, mouse proteomes (brain membrane fraction or cell lysates). The settings on record: mouse proteome, read-out: FAAH % inh. 1 μM (mouse). The procedure, abridged: as §1
For assay [4], the target named is MAGL (Mus musculus (Mouse), UniProt O35678). The assay is described as above. To be noted: mouse proteome, read-out: MAGL % inh. 1 μM (mouse). The procedure, abridged:
as §1

MAGL (Mus musculus (Mouse), UniProt O35678), sequence (O35678 whole entry): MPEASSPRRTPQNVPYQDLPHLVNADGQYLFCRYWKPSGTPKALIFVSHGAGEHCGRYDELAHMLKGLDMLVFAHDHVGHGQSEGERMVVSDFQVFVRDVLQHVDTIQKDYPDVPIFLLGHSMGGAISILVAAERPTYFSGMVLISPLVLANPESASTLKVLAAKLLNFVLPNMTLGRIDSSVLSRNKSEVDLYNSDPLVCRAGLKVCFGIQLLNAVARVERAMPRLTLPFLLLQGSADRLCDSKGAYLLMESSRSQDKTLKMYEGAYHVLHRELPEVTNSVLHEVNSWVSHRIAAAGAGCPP
FAAH (Homo sapiens (Human), UniProt O00519), sequence (O00519 whole entry): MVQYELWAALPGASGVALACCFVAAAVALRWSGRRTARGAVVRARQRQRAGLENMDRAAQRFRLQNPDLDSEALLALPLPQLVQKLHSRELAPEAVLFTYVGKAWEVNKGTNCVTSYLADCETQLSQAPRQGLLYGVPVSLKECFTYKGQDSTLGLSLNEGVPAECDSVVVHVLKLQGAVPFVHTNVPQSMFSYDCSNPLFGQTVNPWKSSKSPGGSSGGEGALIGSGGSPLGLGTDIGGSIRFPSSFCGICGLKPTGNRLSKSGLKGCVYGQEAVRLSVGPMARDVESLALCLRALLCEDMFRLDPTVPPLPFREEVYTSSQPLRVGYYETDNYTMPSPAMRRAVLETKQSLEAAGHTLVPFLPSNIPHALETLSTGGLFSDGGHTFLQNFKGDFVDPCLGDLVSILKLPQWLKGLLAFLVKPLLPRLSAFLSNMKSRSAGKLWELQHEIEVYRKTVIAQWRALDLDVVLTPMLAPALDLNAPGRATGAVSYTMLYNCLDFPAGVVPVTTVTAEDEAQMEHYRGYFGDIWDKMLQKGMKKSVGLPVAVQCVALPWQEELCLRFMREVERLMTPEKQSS
FAAH (Mus musculus (Mouse), UniProt O08914), sequence (O08914 whole entry): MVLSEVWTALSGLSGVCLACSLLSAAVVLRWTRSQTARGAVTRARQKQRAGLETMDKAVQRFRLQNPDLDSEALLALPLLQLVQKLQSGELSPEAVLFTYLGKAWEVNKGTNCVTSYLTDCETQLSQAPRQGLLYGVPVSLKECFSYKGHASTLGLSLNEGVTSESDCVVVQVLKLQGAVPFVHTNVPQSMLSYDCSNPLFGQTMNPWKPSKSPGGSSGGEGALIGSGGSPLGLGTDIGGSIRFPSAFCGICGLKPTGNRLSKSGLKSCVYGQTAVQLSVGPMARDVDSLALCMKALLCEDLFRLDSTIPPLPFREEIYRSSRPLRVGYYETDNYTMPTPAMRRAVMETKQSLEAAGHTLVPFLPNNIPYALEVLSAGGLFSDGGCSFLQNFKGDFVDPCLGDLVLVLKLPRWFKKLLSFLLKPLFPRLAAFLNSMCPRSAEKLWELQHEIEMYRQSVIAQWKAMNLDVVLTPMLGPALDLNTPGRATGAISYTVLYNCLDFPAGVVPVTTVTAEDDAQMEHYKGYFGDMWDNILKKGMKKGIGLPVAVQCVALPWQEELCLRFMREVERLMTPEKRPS

Consider `CS(=O)(=O)Nc1ccn(C(=O)N2CCC(Oc3ccc(C(F)(F)F)cc3C(=O)N3CCCC3)CC2)n1` [Example 101, N-(1-(4-(2-(Pyrrolidine-1-carbonyl)-4-(trifluoromethyl)phenoxy)piperidine-1-carbonyl)-1H-pyrazol-3-yl)methanesulfonamide], for which the inhibition at 1 µM in assay [1] is 0 to 25%; in assay [2], greater than 75%; in assay [3], 0 to 25%; in assay [4], 50 to 75%.

In the case of `CN(Cc1ccc(C(F)(F)F)cc1NCC(=O)O)C1(C)CCN(C(=O)n2ccc(NS(C)(=O)=O)n2)CC1` [Example 102, (2-((Methyl(4-methyl-1-(3-(methylsulfonamido)-1H-pyrazole-1-carbonyl)piperidin-4-yl)amino)methyl)-5-(trifluoromethyl)phenyl)glycine], the inhibition at 1 µM in assay [1] was in the range of 0 to 25%; in assay [2] it was 50 to 75%; in assay [3] it was 0 to 25%; in assay [4], 0 to 25%.

For `CC(=O)Nc1ccn(C(=O)N2CCC3(CCCN3Cc3ccc(Cl)cc3OCCCC(=O)O)CC2)n1` [Example 105, 4-(2-((8-(3-Acetamido-1H-pyrazole-1-carbonyl)-1,8-diazaspiro[4.5]decan-1-yl)methyl)-5-chlorophenoxy)butanoic acid], the inhibition at 1 µM in assay [1] was 0 to 25%; in assay [2], greater than 75%; in assay [3] it was 0 to 25%; in assay [4] it was greater than 75%.

Consider `CS(=O)(=O)Nc1ccn(C(=O)N2CCN(Cc3cc4cc(F)ccc4[nH]3)CC2)n1` [Example 107, N-(1-(4-((5-Fluoro-1H-indol-2-yl)methyl)piperazine-1-carbonyl)-1H-pyrazol-3-yl)methanesulfonamide], for which the inhibition at 1 µM in assay [1] is 0 to 25%; in assay [2] it was greater than 75%; in assay [3], 0 to 25%; in assay [4], greater than 75%.

As for `CS(=O)(=O)Nc1ccn(C(=O)N2CCC(Oc3ccc(C(F)(F)F)c(N4CCC(F)CC4)c3)CC2)n1` [Example 109, N-(1-(4-(3-(4-Fluoropiperidin-1-yl)-4-(trifluoromethyl)phenoxy)piperidine-1-carbonyl)-1H-pyrazol-3-yl)methanesulfonamide], the inhibition at 1 µM in assay [1] is 0 to 25%; in assay [2] it was greater than 75%; in assay [3] it was 0 to 25%; in assay [4], greater than 75%.

For the compound `CS(=O)(=O)Nc1ccn(C(=O)N2CCC(Oc3ccc(C(F)(F)F)c(OC4CCCC4)c3)CC2)n1` [Example 110, N-(1-(4-(3-(Cyclopentyloxy)-4-(trifluoromethyl)phenoxy)piperidine-1-carbonyl)-1H-pyrazol-3-yl)methanesulfonamide], the inhibition at 1 µM in assay [1] is 0 to 25%; in assay [2], greater than 75%; in assay [3] it was 0 to 25%; in assay [4], greater than 75%.

As to `CS(=O)(=O)Nc1ccn(C(=O)N2CCN(Cc3ccc(Cl)c(OC4CCCC4)c3)CC2)n1` [Example 111, N-(1-(4-(4-Chloro-3-(cyclopentyloxy)benzyl)piperazine-1-carbonyl)-1H-pyrazol-3-yl)methanesulfonamide], the inhibition at 1 µM in assay [1] was 0 to 25%; in assay [2], greater than 75%; in assay [3] it was 0 to 25%; in assay [4] it was greater than 75%.

Regarding `CC(=O)Nc1ccn(C(=O)N2CC3CN(Cc4cccc(OC(F)(F)F)c4)CC3C2)n1` (centres unmarked) [Example 113, N-(1-(5-(3-(Trifluoromethoxy)benzyl)octahydropyrrolo[3,4-c]pyrrole-2-carbonyl)-1H-pyrazol-3-yl)acetamide], the inhibition at 1 µM in assay [1] is 25 to 50%; in assay [2], greater than 75%; in assay [3], greater than 75%; in assay [4], greater than 75%.

For `CS(=O)(=O)Nc1ccn(C(=O)N2CC3CN(Cc4cccc(C(F)(F)F)c4)CC3C2)n1` (centres unmarked) [Example 114, N-(1-(5-(3-(Trifluoromethyl)benzyl)octahydropyrrolo[3,4-c]pyrrole-2-carbonyl)-1H-pyrazol-3-yl)methanesulfonamide], the inhibition at 1 µM in assay [1] was 25 to 50%; in assay [2] it was greater than 75%; in assay [3] it was greater than 75%; in assay [4], 25 to 50%.

Consider `CS(=O)(=O)Nc1ccn(C(=O)N2CC3CN(Cc4cccc(OC(F)(F)F)c4)CC3C2)n1` (centres unmarked) [Example 115, N-(1-(5-(3-(Trifluoromethoxy)benzyl)octahydropyrrolo[3,4-c]pyrrole-2-carbonyl)-1H-pyrazol-3-yl)methanesulfonamide], for which the inhibition at 1 µM was 25 to 50% in assay [1], greater than 75% in assay [2], greater than 75% in assay [3] and 25 to 50% in assay [4].

As to `CS(=O)(=O)Nc1ccn(C(=O)N2CCN(Cc3ccc(C(F)(F)F)c(-c4nnco4)c3)CC2)n1` [Example 116, N-(1-(4-(3-(1,3,4-Oxadiazol-2-yl)-4-(trifluoromethyl)benzyl)piperazine-1-carbonyl)-1H-pyrazol-3-yl)methanesulfonamide], the inhibition at 1 µM was 0 to 25% in assay [1], greater than 75% in assay [2], 0 to 25% in assay [3] and 50 to 75% in assay [4].

Take `CS(=O)(=O)Nc1ccn(C(=O)N2CCN(Cc3ccc(C(F)(F)F)c(N4CC[C@@H](F)C4)c3)CC2)n1` [Example 120, (R)-N-(1-(4-(3-(3-Fluoropyrrolidin-1-yl)-4-(trifluoromethyl)benzyl)piperazine-1-carbonyl)-1H-pyrazol-3-yl)methanesulfonamide]: the inhibition at 1 µM was 0 to 25% in assay [1], greater than 75% in assay [2], 0 to 25% in assay [3] and greater than 75% in assay [4].

Take `CC(=O)Nc1ccn(C(=O)N2CC3CN(Cc4ccc(N5CCCC5)cc4C(F)(F)F)CC3C2)n1` (centres unmarked) [Example 121, N-(1-(5-(4-(Pyrrolidin-1-yl)-2-(trifluoromethyl)benzyl)octahydropyrrolo[3,4-c]pyrrole-2-carbonyl)-1H-pyrazol-3-yl)acetamide]: the inhibition at 1 µM in assay [1], in assay [2], in assay [3] and in assay [4] was greater than 75% each time. Also, the results for the IC50 in assay [1] and in assay [2] were 0.1 to 1 µM and less than 0.1 µM, respectively.

For the compound `CS(=O)(=O)Nc1ccn(C(=O)N2CCN(Cc3ccc(Cl)c(N4CC[C@@H](F)C4)c3)CC2)n1` [Example 122, (R)-N-(1-(4-(4-Chloro-3-(3-fluoropyrrolidin-1-yl)benzyl)piperazine-1-carbonyl)-1H-pyrazol-3-yl)methanesulfonamide], the inhibition at 1 µM in assay [1] was 0 to 25%; in assay [2] it was greater than 75%; in assay [3], 0 to 25%; in assay [4] it was greater than 75%.

For the compound `CC(=O)Nc1ccn(C(=O)N2CCN(Cc3ccc(C(N)=O)c(C(F)(F)F)c3)CC2)n1` [Example 123, 4-((4-(3-Acetamido-1H-pyrazole-1-carbonyl)piperazin-1-yl)methyl)-2-(trifluoromethyl)benzamide], the inhibition at 1 µM is 0 to 25% in assay [1], greater than 75% in assay [2], 0 to 25% in assay [3] and greater than 75% in assay [4].

In the case of `CC(=O)Nc1ccn(C(=O)N2CC3CN(Cc4ccc(C(N)=O)c(C(F)(F)F)c4)CC3C2)n1` (centres unmarked) [Example 124, 4-((5-(3-Acetamido-1H-pyrazole-1-carbonyl)hexahydropyrrolo[3,4-c]pyrrol-2(1H)-yl)methyl)-2-(trifluoromethyl)benzamide], the inhibition at 1 µM in assay [1] is 0 to 25%; in assay [2], greater than 75%; in assay [3], 0 to 25%; in assay [4] it was greater than 75%.

Consider `CC(=O)Nc1ccn(C(=O)N2CCC3(CC2)CN(Cc2ccc(C(N)=O)c(C(F)(F)F)c2)C3)n1` [Example 126, 4-((7-(3-Acetamido-1H-pyrazole-1-carbonyl)-2,7-diazaspiro[3.5]nonan-2-yl)methyl)-2-(trifluoromethyl)benzamide], for which the inhibition at 1 µM in assay [1] was 0 to 25%; in assay [2], greater than 75%; in assay [3], 0 to 25%; in assay [4], greater than 75%.

In the case of `CC(=O)Nc1ccn(C(=O)N2CCN(Cc3cccc(C(F)(F)F)c3)CC2)n1` [Example 127, N-(1-(4-(3-(Trifluoromethyl)benzyl)piperazine-1-carbonyl)-1H-pyrazol-3-yl)acetamide], the inhibition at 1 µM is 0 to 25% in assay [1], greater than 75% in assay [2], 0 to 25% in assay [3] and greater than 75% in assay [4].

With `CC(=O)Nc1ccn(C(=O)N2CCN(Cc3cccc(OC(F)(F)F)c3)CC2)n1` [Example 128, N-(1-(4-(3-(Trifluoromethoxy)benzyl)piperazine-1-carbonyl)-1H-pyrazol-3-yl)acetamide], the inhibition at 1 µM in assay [1] was 0 to 25%; in assay [2], greater than 75%; in assay [3], 0 to 25%; in assay [4] it was greater than 75%.

Consider `CC(=O)Nc1ccn(C(=O)N2CCN(Cc3cccc(C(F)(F)F)c3C)CC2)n1` [Example 129, N-(1-(4-(2-Methyl-3-(trifluoromethyl)benzyl)piperazine-1-carbonyl)-1H-pyrazol-3-yl)acetamide], for which the inhibition at 1 µM in assay [1] is 0 to 25%; in assay [2], greater than 75%; in assay [3], 0 to 25%; in assay [4] it was greater than 75%.

Take `CC(=O)Nc1ccn(C(=O)N2CCC(C)(N(C)Cc3ccc(C(N)=O)c(C(F)(F)F)c3)CC2)n1` [Example 130, 4-(((1-(3-Acetamido-1H-pyrazole-1-carbonyl)-4-methylpiperidin-4-yl)(methyl)amino)methyl)-2-(trifluoromethyl)benzamide]: the inhibition at 1 µM in assay [1] is 0 to 25%; in assay [2], greater than 75%; in assay [3], 0 to 25%; in assay [4], greater than 75%.
